Data taken from patent US20240016781A1, “TREATMENT OF KRAS MUTANT CANCERS” (MEI Pharma, Inc., priority 2020, published 2024).
Like-named read-outs stand apart in the source and are kept apart here.

Tests used:
Experiment in all cases: 72-hour CellTiter-Glo 2.0 growth inhibition screen (single agent, 9x9 combination dose matrix);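 for Best CI Level: inhibition effect level at which the best CI was calculated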
Assay type in all cases: cell-based
[1] = system: HPAF-II;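 for Best CI Level: inhibition effect level at which the best CI was calculated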
[2] = system: KYSE-410;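 for Best CI Level: inhibition effect level at which the best CI was calculated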
[3] = system: LS-513;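 for Best CI Level: inhibition effect level at which the best CI was calculated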
[4] = system: SW48 KRAS (G12D/+);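 for Best CI Level: inhibition effect level at which the best CI was calculated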
[5] = system: TOV-21G;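 for Best CI Level: inhibition effect level at which the best CI was calculated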
[6] = HPAF-II, Pancreas, Additional Single Agent Responses (inhibition, % I), 72 h
[7] = HPAF-II, Pancreas, growth inhibition (GI) curve, single agent, 72 h
[8] = HPAF-II, Pancreas, growth inhibition (GI), AUC, single agent, 72 h
[9] = KYSE-410, Esophageal, Additional Single Agent Responses (inhibition, % I), 72 h
[10] = KYSE-410, Esophageal, growth inhibition (GI) curve, single agent, 72 h
[11] = KYSE-410, Esophageal, growth inhibition (GI), AUC, single agent, 72 h
[12] = LS-513, Colorectal, Additional Single Agent Responses (inhibition, % I), 72 h
[13] = LS-513, Colorectal, growth inhibition (GI) curve, single agent, 72 h
[14] = LS-513, Colorectal, growth inhibition (GI), AUC, single agent, 72 h
[15] = SW48 KRAS (G12D/+), Colorectal, Additional Single Agent Responses (inhibition, % I), 72 h
[16] = SW48 KRAS (G12D/+), Colorectal, growth inhibition (GI), AUC, single agent, 72 h
[17] = TOV-21G, Ovary, Additional Single Agent Responses (inhibition, % I), 72 h
[18] = TOV-21G, Ovary, growth inhibition (GI) curve, single agent, 72 h
[19] = TOV-21G, Ovary, growth inhibition (GI), AUC, single agent, 72 h
[20] = HPAF-II (KRAS G12D), enhancer + MEI-522 (Voruciclib), 72 h;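 for Best CI Level: inhibition effect level at which the best CI was calculated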
[21] = enhancer combined with MEI-522 (Voruciclib), HPAF-II (Pancreas), 72 hours, inhibition data
[22] = KYSE-410 (KRAS G12C), enhancer + MEI-522 (Voruciclib), 72 h;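 for Best CI Level: inhibition effect level at which the best CI was calculated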
[23] = enhancer combined with MEI-522 (Voruciclib), KYSE-410 (Esophageal), 72 hours, inhibition data
[24] = LS-513 (KRAS G12D), enhancer + MEI-522 (Voruciclib), 72 h;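 for Best CI Level: inhibition effect level at which the best CI was calculated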
[25] = enhancer combined with MEI-522 (Voruciclib), LS-513 (Colorectal), 72 hours, inhibition data
[26] = SW48 KRAS (G12D/+), enhancer + MEI-522 (Voruciclib), 72 h
[27] = enhancer combined with MEI-522 (Voruciclib), SW48 KRAS (G12D/+) (Colorectal), 72 hours, inhibition data
[28] = TOV-21G (KRAS G13C), enhancer + MEI-522 (Voruciclib), 72 h;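 for Best CI Level: inhibition effect level at which the best CI was calculated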
[29] = enhancer combined with MEI-522 (Voruciclib), TOV-21G (Ovary), 72 hours, inhibition data

CN1CC[C@@H](c2c(O)cc(O)c3c(=O)cc(-c4ccc(C(F)(F)F)cc4Cl)oc23)[C@@H]1CO [MEI-522(Voruciclib)]
EC50 [1, 6]: 1310 nM | IC50 [1, 6]: 1880 nM | Response Area [1, 6]: 2.09 | Max Response (% I) ([1]; HPAF-II, Pancreas, Additional Single Agent Responses, 72 h): 72 % I | EC50 [1, 7]: 1330 nM | GI50 [1, 7]: 1340 nM | Response Area [1, 8]: 2.84 | Max Response (% GI) ([1]; HPAF-II, Pancreas, growth inhibition (GI), single agent, 72 h): 97 % GI | EC50 [2, 9]: 1740 nM | IC50 [2, 9]: 1900 nM | Response Area [2, 9]: 1.97 | Max Response (% I) ([2]; KYSE-410, Esophageal, Additional Single Agent Responses, 72 h): 72 % I | EC50 [2, 10]: 1750 nM | GI50 [2, 10]: 1800 nM | Response Area [2, 11]: 2.41 | Max Response (% GI) ([2]; KYSE-410, Esophageal, growth inhibition (GI), single agent, 72 h): 87 % GI | EC50 [3, 12]: 549 nM | IC50 [3, 12]: 633 nM | Response Area [3, 12]: 2.94 | Max Response (% I) ([3]; LS-513, Colorectal, Additional Single Agent Responses, 72 h): 90 % I | EC50 [3, 13]: 878 nM | GI50 [3, 13]: 529 nM | Response Area [3, 14]: 4.51 | Max Response (% GI) ([3]; LS-513, Colorectal, growth inhibition (GI), single agent, 72 h): 147 % GI | IC50 [4, 15]: 572 nM | Response Area [4, 15]: 2.81 | EC50 ([4]; SW48 KRAS (G12D/+), Colorectal, Additional Single Agent Responses (inhibition, % I), 72 h, read-out: EC50): 463 nM | Max Response (% I) ([4]; SW48 KRAS (G12D/+), Colorectal, Additional Single Agent Responses, 72 h): 84 % I | GI50 ([4]; SW48 KRAS (G12D/+), Colorectal, growth inhibition (GI) curve, single agent, 72 h): 428 nM | EC50 ([4]; SW48 KRAS (G12D/+), Colorectal, growth inhibition (GI) curve, single agent, 72 h, read-out: EC50): 541 nM | Response Area [4, 16]: 4.36 | Max Response (% GI) ([4]; SW48 KRAS (G12D/+), Colorectal, growth inhibition (GI), single agent, 72 h): 139 % GI | EC50 [5, 17]: 1660 nM | IC50 [5, 17]: 1730 nM | Response Area [5, 17]: 2.63 | Max Response (% I) ([5]; TOV-21G, Ovary, Additional Single Agent Responses, 72 h): 95 % I | EC50 [5, 18]: 1980 nM | GI50 [5, 18]: 1570 nM | Response Area [5, 19]: 4.89 | Max Response (% GI) ([5]; TOV-21G, Ovary, growth inhibition (GI), single agent, 72 h): 181 % GI

C=CC(=O)N1CCN(c2nc(=O)n(-c3c(C)ccnc3C(C)C)c3nc(-c4c(O)cccc4F)c(F)cc23)[C@@H](C)C1 [AMG510]
Best CI [1, 20]: 0.06 | Bliss Volume [1, 20]: −3.31 | HSA volume [1, 20]: −4.44 | Loewe Volume [1, 20]: −3.46 | Synergy Score [1, 20]: 0.12 | Response Area [1, 6]: 0.32 | Response Area [1, 8]: 0.47 | EC50 ([1]; Homo sapiens, HPAF-II, 72 h, Pancreas, Additional Single Agent Responses (inhibition, % I)): 2400 nM | EC50 ([1]; Homo sapiens, HPAF-II, 72 h, Pancreas, growth inhibition (GI) curve, single agent): 2540 nM | Emax ([1]; Homo sapiens, HPAF-II, Pancreas, Additional Single Agent Responses, 72 h, read-out: Max Response (% I)): 11% | Emax ([1]; Homo sapiens, HPAF-II, Pancreas, growth inhibition (GI), single agent, 72 h, read-out: Max Response (% GI)): 15% | Best CI [1, 21]: 1.03 | Bliss Volume [1, 21]: −2.30 | HSA volume [1, 21]: −3.13 | Loewe Volume [1, 21]: −2.28 | Synergy Score [1, 21]: 0.09 | Best CI Level ([1]; enhancer combined with MEI-522 (Voruciclib), HPAF-II (Pancreas), 72 hours, inhibition data, unit assumed): 20% | EC50 ([2]; Homo sapiens, KYSE-410, 72 h, KYSE-410, Esophageal, Additional Single Agent Responses (inhibition, % I), 72 h): 5.8 nM | EC50 ([2]; Homo sapiens, KYSE-410, 72 h, KYSE-410, Esophageal, growth inhibition (GI) curve, single agent, 72 h): 6 nM | Emax ([2]; Homo sapiens, KYSE-410, Esophageal, Additional Single Agent Responses, 72 h, read-out: Max Response (% I)): 20% | Emax ([2]; Homo sapiens, KYSE-410, Esophageal, growth inhibition (GI), single agent, 72 h, read-out: Max Response (% GI)): 24% | Best CI [2, 22]: 1.14 | Bliss Volume [2, 22]: 1.47 | HSA volume [2, 22]: 2.26 | Loewe Volume [2, 22]: 2.48 | Synergy Score [2, 22]: 1.71 | Response Area [2, 9]: 0.88 | Response Area [2, 11]: 1.06 | Best CI [2, 23]: 1.14 | Bliss Volume [2, 23]: 1.06 | HSA volume [2, 23]: 1.87 | Loewe Volume [2, 23]: 2.13 | Synergy Score [2, 23]: 1.19 | Best CI Level ([2]; enhancer combined with MEI-522 (Voruciclib), KYSE-410 (Esophageal), 72 hours, inhibition data, unit assumed): 45% | EC50 ([3]; Homo sapiens, LS-513, 72 h, LS-513, Colorectal, Additional Single Agent Responses (inhibition, % I), 72 h): 321 nM | EC50 ([3]; Homo sapiens, LS-513, 72 h, LS-513, Colorectal, growth inhibition (GI) curve, single agent, 72 h): 320 nM | Emax ([3]; Homo sapiens, LS-513, Colorectal, Additional Single Agent Responses, 72 h, read-out: Max Response (% I)): 3% | Emax ([3]; Homo sapiens, LS-513, Colorectal, growth inhibition (GI), single agent, 72 h, read-out: Max Response (% GI)): 4% | Best CI [3, 24]: 0.70 | Bliss Volume [3, 24]: 0.20 | HSA volume [3, 24]: −2.06 | Loewe Volume [3, 24]: −0.76 | Synergy Score [3, 24]: 1.51 | Response Area [3, 12]: −0.19 | Response Area [3, 14]: −0.23 | Best CI [3, 25]: 0.82 | Best CI Level [3, 25]: 20 | Bliss Volume [3, 25]: −0.02 | HSA volume [3, 25]: −1.47 | Loewe Volume [3, 25]: −0.89 | Synergy Score [3, 25]: 0.37 | Bliss Volume [4]: −0.98 | EC50 ([4]; Homo sapiens, SW48, 72 h): 3000 nM | Emax ([4]; Homo sapiens, SW48, 72 h, read-out: Max Response (% GI)): 15% | Emax ([4]; Homo sapiens, SW48, 72 h, read-out: Max Response (% I)): 11% | Response Area [4, 15]: 0.00 | Response Area [4, 16]: 0.00 | Best CI [4, 26]: 0.55 | Bliss Volume [4, 26]: 0.17 | Loewe Volume [4, 26]: 0.13 | Synergy Score [4, 26]: 2.74 | Best CI [4, 27]: 1.38 | Loewe Volume [4, 27]: −0.76 | Synergy Score [4, 27]: 0.86 | Best CI Level ([4]; enhancer combined with MEI-522 (Voruciclib), SW48 KRAS (G12D/+) (Colorectal), 72 hours, inhibition data, unit assumed): 20% | EC50 ([5]; Homo sapiens, TOV21G, TOV-21G, Ovary, Additional Single Agent Responses (inhibition, % I), 72 h): 3000 nM | Emax ([5]; Homo sapiens, TOV21G, TOV-21G, Ovary, Additional Single Agent Responses, 72 h, read-out: Max Response (% I)): 7% | Emax ([5]; Homo sapiens, TOV21G, TOV-21G, Ovary, growth inhibition (GI), single agent, 72 h, read-out: Max Response (% GI)): 9% | Best CI [5, 28]: 0.37 | Bliss Volume [5, 28]: 2.49 | HSA volume [5, 28]: −6.11 | Loewe Volume [5, 28]: −3.64 | Synergy Score [5, 28]: 0.49 | Response Area [5, 17]: −0.01 | Response Area [5, 19]: −0.01 | Best CI [5, 29]: 0.45 | Best CI Level [5, 29]: 20 | Bliss Volume [5, 29]: 2.55 | HSA volume [5, 29]: −4.28 | Loewe Volume [5, 29]: −2.46 | Synergy Score [5, 29]: 0.33
